Source: patent publication US9227971B2, “Pyrazolo[1,5-a]pyrimidine compounds as mTOR inhibitors” (Merck Sharp & Dohme Corp., priority 2010, dated 2016)
Read-outs that look alike come from different tables or passages of the source.

Tests used:
[1] = tested on: phosphorylated AKT Ser473 (pAKT S473), mTORC2 activity, PC3 cells; assay: mTOR target engagement assay, immunofluorescent cell-based, pAKT S473 readout (mTORC2 activity); conditions: Homo sapiens
Outline: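 After blocking, cells were stained overnight at 4 °C with anti-pAKT S473 antibody, then a fluorescent secondary; inhibition was read as reduced fluorescence intensity.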

[2] = tested on: phosphorylated 4E-BP1 Thr37/46 (p4E-BP1 Thr37/46), mTORC1 activity, PC3 cells; assay: mTOR target engagement assay, immunofluorescent cell-based, p4E-BP1 Thr37/46 readout (mTORC1 activity); conditions: Homo sapiens, read-out: p4E-BP1 Thr37/46 IC50
Outline: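 Read-out is fluorescence intensity of immunostained p4E-BP1 Thr37/46 in fixed PC3 cells, fitted to a logistic curve for IC50 with DMSO-only wells as top. Cells had been exposed to serial compound dilutions for ninety minutes at 37° C in 5% FBS medium with 0.25% DMSO.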

[3] = PC-3, PC3 cells, compound treatment ninety minutes at 37° C.

| SMILES | IC50 ([1]; PC-3, Table 3-1, PC3 cells) | IC50 ([2]; PC-3, Table 3-1, PC3 cells) | IC50 [1, 3] | IC50 [2, 3] | further results |
| --- | --- | --- | --- | --- | --- |
| COc1ccc(-c2ccc(-c3cnn4c(N)c(S(C)(=O)=O)c([C@@H]5C[C@H]6CC[C@@H](C5)N6C(=O)c5nnc[nH]5)nc34)cn2)s1 [Compound 3.35, ((1R,3s,5S)-3-(7-amino-3-(6-(5-methoxythiophen-2-yl)pyridin-3-yl)-6-(methylsulfonyl)pyrazolo[1,5-a]pyrimidin-5-yl)-8-azabicyclo[3.2.1]octan-8-yl)(4H-1,2,4-triazol-3-yl)methanone] | 1 to 100 nM | 1 to 100 nM | – | – | – |
| CC(=O)c1c([C@@H]2C[C@H]3CC[C@@H](C2)N3C(=O)c2nnc[nH]2)nc2c(-c3ccc(-c4cccnc4F)nc3)cnn2c1N [Compound 1.1.62, 1-(5-((1R,3s,5S)-8-(4H-1,2,4-triazole-3-carbonyl)-8-azabicyclo[3.2.1]octan-3-yl)-7-amino-3-(2′-fluoro-2,3′-bipyridin-5-yl)pyrazolo[1,5-a]pyrimidin-6-yl)ethanone] | – | – | 1 to 100 nM | 1 to 100 nM | – |
| CS(=O)(=O)c1c([C@@H]2C[C@H]3CC[C@@H](C2)N3C(=O)[C@H]2CCCN2)nc2c(-c3ccc(-c4ccccc4)nc3)cnn2c1N [Compound 3.205] | 100 to 1000 nM | 100 to 1000 nM | – | – | – |
| CS(=O)(=O)c1c([C@@H]2C[C@H]3CC[C@@H](C2)N3C(N)=O)nc2c(-c3ccc(-c4ccccc4F)nc3)cnn2c1N [Compound 3.131, (1R,3s,5S)-3-(7-amino-3-(6-(2-fluorophenyl)pyridin-3-yl)-6-(methylsulfonyl)pyrazolo[1,5-a]pyrimidin-5-yl)-8-azabicyclo[3.2.1]octane-8-carboxamide] | 1 to 100 nM | 1 to 100 nM | – | – | – |
| CC(=O)c1c([C@@H]2C[C@H]3CC[C@@H](C2)N3C(=O)c2nnc[nH]2)nc2c(-c3ccc(-c4nc[nH]n4)nc3)cnn2c1N [Compound 1.1.91, 1-(3-(6-(1H-1,2,4-triazol-3-yl)pyridin-3-yl)-5-((1R,3s,5S)-8-(4H-1,2,4-triazole-3-carbonyl)-8-azabicyclo[3.2.1]octan-3-yl)-7-aminopyrazolo[1,5-a]pyrimidin-6-yl)ethanone] | – | – | 1 to 100 nM | 1 to 100 nM | – |
| CC(=O)c1c([C@@H]2C[C@H]3CC[C@@H](C2)N3C(=O)c2nnc[nH]2)nc2c(-c3cnc(-c4cc[nH]n4)c(F)c3)cnn2c1N [Compound 1.1.110, 1-(5-((1R,3s,5S)-8-(4H-1,2,4-triazole-3-carbonyl)-8-azabicyclo[3.2.1]octan-3-yl)-7-amino-3-(5-fluoro-6-(1H-pyrazol-3-yl)pyridin-3-yl)pyrazolo[1,5-a]pyrimidin-6-yl)ethanone] | – | – | 100 to 1000 nM | 100 to 1000 nM | – |
| COc1ccc(-c2ccc(-c3cnn4c(N)cc([C@@H]5C[C@H]6CC[C@@H](C5)N6C(=O)CO)nc34)cn2)cc1CO [Compound 2.7, 1-((1R,3s,5S)-3-(7-amino-3-(6-(3-(hydroxymethyl)-4-methoxyphenyl)pyridin-3-yl)pyrazolo[1,5-a]pyrimidin-5-yl)-8-azabicyclo[3.2.1]octan-8-yl)-2-hydroxyethanone] | – | – | 100 to 1000 nM | 100 to 1000 nM | – |
| CC(=O)c1c([C@@H]2C[C@H]3CC[C@@H](C2)N3C(=O)CO)nc2c(-c3ccc(-n4cc(C)cn4)nc3)cnn2c1N [Compound 1.1.134, 1-((1R,3s,5S)-3-(6-acetyl-7-amino-3-(6-(4-methyl-1H-pyrazol-1-yl)pyridin-3-yl)pyrazolo[1,5-a]pyrimidin-5-yl)-8-azabicyclo[3.2.1]octan-8-yl)-2-hydroxyethanone] | – | – | 1 to 100 nM | 100 to 1000 nM | – |
| CS(=O)(=O)c1c([C@]2(O)C[C@H]3CC[C@@H](C2)N3C(=O)c2nnc[nH]2)nc2c(-c3ccc(-c4ccccc4)nc3)cnn2c1N [Compound 8.22, ((1R,3r,5S)-3-(7-amino-6-(methylsulfonyl)-3-(6-phenylpyridin-3-yl)pyrazolo[1,5-a]pyrimidin-5-yl)-3-hydroxy-8-azabicyclo[3.2.1]octan-8-yl)(4H-1,2,4-triazol-3-yl)methanone] | – | – | – | – | IC50 ([1]; PC-3, PC3 cells): 100 to 1000 nM; IC50 ([2]; PC-3, PC3 cells): 1000 to 10000 nM |
| CS(=O)(=O)c1c([C@@H]2C[C@H]3CC[C@@H](C2)N3C(=O)CO)nc2c(-c3ccc(-c4ccc(F)cc4F)nc3)cnn2c1N [Compound 3.128, 1-((1R,3s,5S)-3-(7-amino-3-(6-(2,4-difluorophenyl)pyridin-3-yl)-6-(methylsulfonyl)pyrazolo[1,5-a]pyrimidin-5-yl)-8-azabicyclo[3.2.1]octan-8-yl)-2-hydroxyethanone] | 100 to 1000 nM | 100 to 1000 nM | – | – | – |
| CC(=O)c1c([C@@H]2C[C@H]3CC[C@@H](C2)N3C(N)=O)nc2c(-c3ccc(-c4ccccc4F)nc3)cnn2c1N [Compound 1.1.174, (1R,3s,5S)-3-(6-acetyl-7-amino-3-(6-(2-fluorophenyl)pyridin-3-yl)pyrazolo[1,5-a]pyrimidin-5-yl)-8-azabicyclo[3.2.1]octane-8-carboxamide] | – | – | 1 to 100 nM | 1 to 100 nM | – |
| CS(=O)(=O)c1c([C@@H]2C[C@H]3CC[C@@H](C2)N3C(=O)[C@@H]2COC(=O)N2)nc2c(-c3ccc(-c4ccccc4)nc3)cnn2c1N [Compound 3.141, (S)-4-((1R,3R,5S)-3-(7-amino-6-(methylsulfonyl)-3-(6-phenylpyridin-3-yl)pyrazolo[1,5-a]pyrimidin-5-yl)-8-azabicyclo[3.2.1]octane-8-carbonyl)oxazolidin-2-one] | 1000 to 10000 nM | 1000 to 10000 nM | – | – | – |
| CS(=O)(=O)c1c(C2CC3COCC(C2)N3C(=O)C2(O)CC2)nc2c(-c3ccc(-c4ccccc4)nc3)cnn2c1N (single isomer, unassigned) [Compound 8.32, (7-(7-amino-6-(methylsulfonyl)-3-(6-phenylpyridin-3-yl)pyrazolo[1,5-a]pyrimidin-5-yl)-3-oxa-9-azabicyclo[3.3.1]nonan-9-yl)(1-hydroxycyclopropyl)methanone] | – | – | – | – | IC50 ([1]; PC-3, PC3 cells): 1 to 100 nM; IC50 ([2]; PC-3, PC3 cells): 100 to 1000 nM |
| COc1ccc(-c2ccc(-c3cnn4c(N)c(C5CC5)c([C@@H]5C[C@H]6CC[C@@H](C5)N6C(=O)c5nnc(N)[nH]5)nc34)cn2)cc1F [Compound 4.27, (5-amino-4H-1,2,4-triazol-3-yl)((1R,3a,5S)-3-(7-amino-6-cyclopropyl-3-(6-(3-fluoro-4-methoxyphenyl)pyridin-3-yl)pyrazolo[1,5-a]pyrimidin-5-yl)-8-azabicyclo[3.2.1]octan-8-yl)methanone] | – | – | 1 to 100 nM | 1 to 100 nM | – |
| CC(=O)c1c([C@@H]2C[C@H]3CC[C@@H](C2)N3C(=O)[C@H](C)O)nc2c(-c3ccc(-c4ccccc4)nc3)cnn2c1N [Compound 1.1.8, (S)-1-((1R,3R,5S)-3-(6-acetyl-7-amino-3-(6-phenylpyridin-3-yl)pyrazolo[1,5-a]pyrimidin-5-yl)-8-azabicyclo[3.2.1]octan-8-yl)-2-hydroxypropan-1-one] | – | – | 1 to 100 nM | 100 to 1000 nM | – |
| CN(C)c1nnc(C(=O)N2[C@@H]3CC[C@H]2C[C@H](c2nc4c(-c5ccc(-c6ccccc6)nc5)cnn4c(N)c2S(C)(=O)=O)C3)[nH]1 [Compound 3.93, ((1R,3s,5S)-3-(7-amino-6-(methylsulfonyl)-3-(6-phenylpyridin-3-yl)pyrazolo[1,5-a]pyrimidin-5-yl)-8-azabicyclo[3.2.1]octan-8-yl)(5-(dimethylamino)-4H-1,2,4-triazol-3-yl)methanone] | 100 to 1000 nM | 100 to 1000 nM | – | – | – |
| CC(=O)c1c([C@@H]2C[C@H]3CC[C@@H](C2)N3C(=O)c2cc[nH]c2)nc2c(-c3ccc(C(C)(C)O)nc3)cnn2c1N [Compound 7.16, 1-(5-((1R,3s,5S)-8-(1H-pyrrole-3-carbonyl)-8-azabicyclo[3.2.1]octan-3-yl)-7-amino-3-(6-(2-hydroxypropan-2-yl)pyridin-3-yl)pyrazolo[1,5-a]pyrimidin-6-yl)ethanone] | – | – | 1 to 100 nM | 100 to 1000 nM | – |
| Cc1nc(C(=O)N2[C@@H]3CC[C@H]2C[C@H](c2nc4c(-c5ccc(-c6csc(C)n6)nc5)cnn4c(N)c2S(C)(=O)=O)C3)n[nH]1 [Compound 3.199, ((1R,3s,5S)-3-(7-amino-6-(methylsulfonyl)-3-(6-(2-methylthiazol-4-yl)pyridin-3-yl)pyrazolo[1,5-a]pyrimidin-5-yl)-8-azabicyclo[3.2.1]octan-8-yl)(5-methyl-1H-1,2,4-triazol-3-yl)methanone] | 1 to 100 nM | 100 to 1000 nM | – | – | – |
| CS(=O)(=O)c1c([C@@H]2C[C@H]3CC[C@@H](C2)N3C(=O)c2nnc[nH]2)nc2c(-c3ccc(-c4ccc(F)cc4)nc3)cnn2c1N [Compound 3.105, ((1R,3s,5S)-3-(7-amino-3-(6-(4-fluorophenyl)pyridin-3-yl)-6-(methylsulfonyl)pyrazolo[1,5-a]pyrimidin-5-yl)-8-azabicyclo[3.2.1]octan-8-yl)(4H-1,2,4-triazol-3-yl)methanone] | 1 to 100 nM | 1 to 100 nM | – | – | – |
| CC(=O)c1c(C2CC3COCC(C2)N3C(=O)c2nc[nH]n2)nc2c(-c3ccc(-c4ccccc4)nc3)cnn2c1N (stereo not drawn) [Compound 8.27, 1-(5-(9-(1H-1,2,4-triazole-3-carbonyl)-3-oxa-9-azabicyclo[3.3.1]nonan-7-yl)-7-amino-3-(6-phenylpyridin-3-yl)pyrazolo[1,5-a]pyrimidin-6-yl)ethanone] | – | – | – | – | IC50 ([1]; PC-3, PC3 cells): 1 to 100 nM; IC50 ([2]; PC-3, PC3 cells): 100 to 1000 nM |
| CCNC(=O)N1[C@@H]2CC[C@H]1C[C@H](c1nc3c(-c4ccc(-c5ccccc5F)nc4)cnn3c(N)c1S(C)(=O)=O)C2 [Compound 3.130, (1R,3s,5S)-3-(7-amino-3-(6-(2-fluorophenyl)pyridin-3-yl)-6-(methylsulfonyl)pyrazolo[1,5-a]pyrimidin-5-yl)-N-ethyl-8-azabicyclo[3.2.1]octane-8-carboxamide] | 100 to 1000 nM | 100 to 1000 nM | – | – | – |
